Experimental findings from US20250333405A1, “ANTAGONISTS OF GPR39 PROTEIN” (VASOCARDEA, INC., priority 2024, published 2025) are described below.

This experiment has as its target T1, human GPR39 receptor (Homo sapiens, UniProt O43194).
T1 construct: PC3 Cells, Expressing the Endogenous Human GPR39 Receptor; endogenous in cells; host or cells: PC3 (human prostate adenocarcinoma) cells
T1 sequence (O43194 1-453): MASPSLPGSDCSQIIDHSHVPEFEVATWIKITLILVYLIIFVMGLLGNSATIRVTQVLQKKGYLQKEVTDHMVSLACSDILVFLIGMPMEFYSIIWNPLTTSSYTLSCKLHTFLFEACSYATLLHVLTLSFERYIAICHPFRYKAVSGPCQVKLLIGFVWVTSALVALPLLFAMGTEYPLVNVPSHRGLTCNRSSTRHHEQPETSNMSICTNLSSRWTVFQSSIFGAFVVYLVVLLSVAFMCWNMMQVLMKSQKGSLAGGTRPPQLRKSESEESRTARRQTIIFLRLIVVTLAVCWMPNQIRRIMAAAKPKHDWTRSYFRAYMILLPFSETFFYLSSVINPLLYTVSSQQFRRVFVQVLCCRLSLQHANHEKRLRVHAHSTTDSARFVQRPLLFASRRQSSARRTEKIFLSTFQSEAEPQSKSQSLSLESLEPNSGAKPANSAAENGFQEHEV
Description: Intracellular calcium response (FLIPR, Calcium-6) in PC3 cells, antagonism of agonist C3 (TC-G 1008) at EC90. In kind it is cell-based. The settings on record: functional pKi (-Log10Ki) by modified Cheng-Prusoff from IC50; PC3 cells endogenously expressing human GPR39; 30 μM ZnCl2; agonist C3 (TC-G 1008) at EC90 1.5 μM; read-out: fpKi activity. The procedure: Measurement of Intracellular Calcium Response in PC3 Cells, Expressing the Endogenous Human GPR39 Receptor
Human prostate adenocarcinoma (PC3) cells endogenously expressing human GPR39 receptor were seeded into black walls clear-base 384-well plates at a density of 7,500 cells per well in DMEM (Low Glucose) supplemented with 10% heat-inactivated foetal bovine serum and 1% of Pen/Strep and grown overnight at 37° C., 5% CO2. After washing with assay buffer (20 mM HEPES, 137 mM NaCl, 5.4 mM KCl, 10 mM glucose, 0.8 mM MgSO4, 1.3 mM CaCl2), 0.3 mM Na2HPO4, 0.4 mM KH2PO4 4.2 mM NaHCO3, pH 7.4), cells were incubated with Calcium-6 probe (Molecular Devices) at 37° C. for 2 h and then equilibrated at RT for 30 minutes on metal block. The fluorescence was measured in real time by Fluorometric Imaging Plate Reader (FLIPR TETRA, Molecular Devices) (excitation wavelength at 470-495 nm, emission wavelength at 515-575 nm). Compounds of invention were serially diluted in neat DMSO at 1000 fold concentrations and plated into 384-well plates and then 200-fold diluted in assay buffer containing 150 μM ZnCl2 (30 μM final concentration) and 1.1% DMSO (0.32% final concentration). A dual addition FLIPR protocol was used which included a first addition of compounds 200-fold diluted in Assay Buffer containing 150 μM ZnCl2 and 1.1% DMSO and then after 10 minutes a second addition of a submaximal concentration of the hGPR39 receptor agonist, C3 (Tocris, TC-G 1008) at EC90 (concentration producing 90% of the maximal response) value of 1.5 μM. Fluorescence was monitored throughout the run assay. The peak of Ca2+ stimulation (baseline subtracted) was expressed as percentage of the maximal inhibition of the EC90 C3 response and was plotted versus the concentration of test compound. Curve fitting and IC50 estimations are carried out using a four-parameter logistic model using XLfit Software. […] An fpKi less than 5.2 is reported as “+/−”. An fpKi ranging from 5.2 to 5.9 is reported as “+”. An fpKi from 6.0 to 6.5 is reported as “++”. An fpKi from 6.6 to 7.2 is reported as “+++”. An fpKi equal to or greater than 7.3 is reported as “++++”.
`O=C(Nc1ccc(C(=O)N2CC3CCC(C2)O3)c(N2CCCC2)c1)C1CC1` [Example 6, N-[4-(8-oxa-3-azabicyclo[3.2.1]octane-3-carbonyl)-3-pyrrolidin-1-ylphenyl]cyclopropanecarboxamide]: the Ki lay within 316 to 1000 nM. For the compound `O=C(Nc1ccc(C(=O)N2C3CCC2COC3)c(N2CCCC2)c1)C1CC1` [Example 7, N-[4-(3-oxa-8-azabicyclo[3.2.1]octane-8-carbonyl)-3-pyrrolidin-1-ylphenyl]cyclopropanecarboxamide], the Ki was in the range of 1260 to 6310 nM. In the case of `O=C(Nc1ccc(C(=O)N2CC3CC(C2)O3)c(N2CCCC2)c1)C1CC1` [Example 8, N-[4-(6-oxa-3-azabicyclo[3.1.1]heptane-3-carbonyl)-3-pyrrolidin-1-ylphenyl]cyclopropanecarboxamide], the Ki lay within 1260 to 6310 nM.

As for `O=C(Nc1ccc(C(=O)N2CC3CC(C3)C2)c(N2CCCC2)c1)C1CC1` [Example 9, N-[4-(3-azabicyclo[3.1.1]heptane-3-carbonyl)-3-pyrrolidin-1-ylphenyl]cyclopropanecarboxamide], the Ki was in the range of 316 to 1000 nM. As to `CN1CCN(C(=O)c2ccc(Nc3nc4ccccn4n3)cc2N2CCCC2)C(c2ccccc2)C1` (stereo not shown) [Example 19, (4-methyl-2-phenylpiperazin-1-yl)-[2-pyrrolidin-1-yl-4-([1,2,4]triazolo[1,5-a]pyridin-2-ylamino)phenyl]methanone], the Ki is more than 6310 nM. Regarding `Cc1nnc(Nc2ccc(C(=O)N3CCN(C)CC3c3ccccc3)c(N3CCCC3)c2)s1` (stereo not shown) [Example 20, (4-methyl-2-phenylpiperazin-1-yl)-[4-[(5-methyl-1,3,4-thiadiazol-2-yl)amino]-2-pyrrolidin-1-ylphenyl]methanone], the Ki fell in the range of 1260 to 6310 nM. As for `CN1CCN(C(=O)c2ccc(-c3cn[nH]c3)cc2N2CCCC2)C(c2ccccc2)C1` (stereo not shown) [Example 21, (4-methyl-2-phenylpiperazin-1-yl)-[4-(1H-pyrazol-4-yl)-2-pyrrolidin-1-ylphenyl]methanone], the Ki is more than 6310 nM. For the compound `Cn1ccc(-c2cc(NC(=O)C3CC3)ccc2C(=O)N2CCC(F)(F)CC2)n1` [Example 22, N-[4-(4,4-difluoropiperidine-1-carbonyl)-3-(1-methylpyrazol-3-yl)phenyl]cyclopropanecarboxamide], the Ki lay in the range of 63.1 to 251 nM.

Turning to `CC(C)n1ccc(-c2cc(NC(=O)C3CC3)ccc2C(=O)N2CCC(F)(F)CC2)n1` [Example 23, N-[4-(4,4-difluoropiperidine-1-carbonyl)-3-(1-propan-2-ylpyrazol-3-yl)phenyl]cyclopropanecarboxamide], the Ki is not above 50.1 nM.

With `CCCN1CCN(C(=O)c2ccc(NC(=O)C3CC3)cc2-c2ccn(C(C)C)n2)CC1` [Example 24, N-[3-(1-propan-2-ylpyrazol-3-yl)-4-(4-propylpiperazine-1-carbonyl)phenyl]cyclopropanecarboxamide], the Ki was not above 50.1 nM. To `Cc1ccc(-c2cc(NC(=O)C3CC3)ccc2C(=O)N2CCS(=O)(=O)CC2)s1` [Example 25, N-[4-(1,1-dioxo-1,4-thiazinane-4-carbonyl)-3-(5-methylthiophen-2-yl)phenyl]cyclopropanecarboxamide] belongs 316 to 1000 nM; to `N#Cc1ccc(-c2cc(NC(=O)C3CC3)ccc2C(=O)N2CCS(=O)(=O)CC2)s1` [Example 26, N-[3-(5-cyanothiophen-2-yl)-4-(1,1-dioxo-1,4-thiazinane-4-carbonyl)phenyl]cyclopropanecarboxamide], 1260 to 6310 nM; to `O=C(Nc1ccc(C(=O)N2CCS(=O)(=O)CC2)c(-c2cnc(C(F)(F)F)s2)c1)C1CC1` [Example 27, N-[4-(1,1-dioxo-1,4-thiazinane-4-carbonyl)-3-[2-(trifluoromethyl)-1,3-thiazol-5-yl]phenyl]cyclopropanecarboxamide], 1260 to 6310 nM. Regarding `CC(C)n1ccc(-c2cc(NC(=O)C3CC3)ccc2C(=O)N2CCS(=O)(=O)CC2)n1` [Example 28, N-[4-(1,1-dioxo-1,4-thiazinane-4-carbonyl)-3-(1-propan-2-ylpyrazol-3-yl)phenyl]cyclopropanecarboxamide], the Ki was not above 50.1 nM. The value for `O=C(Nc1ccc(C(=O)N2CCS(=O)(=O)CC2)c(-c2ccc(C(F)(F)F)s2)c1)C1CC1` [Example 29, N-[4-(1,1-dioxo-1,4-thiazinane-4-carbonyl)-3-[5-(trifluoromethyl)thiophen-2-yl]phenyl]cyclopropanecarboxamide] was 316 to 1000 nM; that for `O=C(Nc1ccc(C(=O)N2CCS(=O)(=O)CC2)c(-c2cccc(C(F)(F)F)n2)c1)C1CC1` [Example 37, N-[4-(1,1-dioxo-1,4-thiazinane-4-carbonyl)-3-[6-(trifluoromethyl)pyridin-2-yl]phenyl]cyclopropanecarboxamide] was not above 50.1 nM. As to `O=C(Nc1ccc(C(=O)N2CCC3(CC2)COC3)c(-c2cccc(C(F)(F)F)n2)c1)C1CC1` [Example 38, N-[4-(2-oxa-7-azaspiro[3.5]nonane-7-carbonyl)-3-[6-(trifluoromethyl)pyridin-2-yl]phenyl]cyclopropanecarboxamide], the Ki is not above 50.1 nM. To `COC1(C)CCN(C(=O)c2ccc(-c3nnc(C)[nH]3)cc2-c2ccn(C(C)C)n2)CC1` [Example 39, [2-(1-isopropylpyrazol-3-yl)-4-(5-methyl-4H-1,2,4-triazol-3-yl)phenyl]-(4-methoxy-4-methyl-1-piperidyl)methanone] belongs not above 50.1 nM; to `Cc1nnc(-c2ccc(C(=O)N3CCC(C(C)(C)C)CC3)c(-c3ccn(C(C)C)n3)c2)[nH]1` [Example 40, (4-tert-butyl-1-piperidyl)-[2-(1-isopropylpyrazol-3-yl)-4-(5-methyl-4H-1,2,4-triazol-3-yl)phenyl]methanone], 63.1 to 251 nM.

On to `Cc1nnc(-c2ccc(C(=O)N3CCC4(CCO4)CC3)c(-c3ccn(C(C)C)n3)c2)[nH]1` [Example 41, [2-(1-isopropylpyrazol-3-yl)-4-(5-methyl-4H-1,2,4-triazol-3-yl)phenyl]-(1-oxa-7-azaspiro[3.5]nonan-7-yl)methanone], for which the Ki is not above 50.1 nM. For the compound `CCOC1CCN(C(=O)c2ccc(-c3nnc(C)[nH]3)cc2-c2ccn(C(C)C)n2)CC1` [Example 42, (4-ethoxy-1-piperidyl)-[2-(1-isopropylpyrazol-3-yl)-4-(5-methyl-4H-1,2,4-triazol-3-yl)phenyl]methanone], the Ki is not above 50.1 nM. As to `Cc1nnc(-c2ccc(C(=O)N3CCC(C)(F)CC3)c(-c3ccn(C(C)C)n3)c2)[nH]1` [Example 43, (4-fluoro-4-methylpiperidin-1-yl)-[4-(5-methyl-4H-1,2,4-triazol-3-yl)-2-(1-propan-2-ylpyrazol-3-yl)phenyl]methanone], the Ki was not above 50.1 nM.

Take `CCn1nccc1-c1cc(-c2nnc(C)[nH]2)ccc1C(=O)N1CCC(F)(F)CC1` [Example 44, (4,4-difluoropiperidin-1-yl)-[2-(2-ethylpyrazol-3-yl)-4-(5-methyl-4H-1,2,4-triazol-3-yl)phenyl]methanone]: the Ki was 1260 to 6310 nM. `Cc1nnc(-c2ccc(C(=O)N3CCC(C(F)(F)F)CC3)c(-c3ccn(CC(C)C)n3)c2)[nH]1` [Example 45, [2-[1-(2-methylpropyl)pyrazol-3-yl]-4-(5-methyl-4H-1,2,4-triazol-3-yl)phenyl]-[4-(trifluoromethyl)piperidin-1-yl]methanone]: the Ki is not above 50.1 nM.

For `Cc1nnc(-c2ccc(C(=O)N3CCC(F)(F)CC3)c(-c3ccn(C)n3)c2)[nH]1` [Example 46, (4,4-difluoropiperidin-1-yl)-[2-(1-methylpyrazol-3-yl)-4-(5-methyl-4H-1,2,4-triazol-3-yl)phenyl]methanone], the Ki lay in the range of 63.1 to 251 nM.
